Laboratory results: ChEMBL document CHEMBL3243992, “Synthesis and carcinogenic activity of 5-fluoro-7-(oxygenated methyl)-12-methylvenz[a]anthracenes” (J Med Chem, 1978)

Assays:
Rattus norvegicus [1] = test: Carcinogenic activity in Sprague-Dawley rat assessed as tumor formation at 0.1 umol, sc three times a week for 30 days observed up to 270 days; type: ADME, organism-based; conditions: in vivo
Rattus norvegicus [2] = test: Carcinogenic activity in Sprague-Dawley rat assessed as tumor induction time at 0.1 umol, sc three times a week for 30 days; type: ADME, organism-based; conditions: in vivo, 720 h

Row | SMILES | Activity (Rattus norvegicus [1]) | Time (Rattus norvegicus [2]) [days]
1 | Cc1c2ccccc2c(CO)c2cc(F)c3ccccc3c12 | Non-toxic | 
2 | CC(=O)OCc1c2ccccc2c(C)c2c1cc(F)c1ccccc12 |  | 205.7
3 | Cc1c2ccccc2c(C)c2c1cc(F)c1ccccc12 |  | 231
